One test concerns the target Acetylcholinesterase (Homo sapiens, UniProt P22303). The test is described as follows: Inhibition of AChE (unknown origin) using ATCI as substrate preincubated for 15 min followed by substrate addition measured after 40 min by Ellman's method. (In Ellman's method for cholinesterases, released thiocholine reacts with DTNB.)
The next test has as its target Cholinesterase (Homo sapiens, UniProt P06276). The test is described as follows: Inhibition of BChE (unknown origin) using BTCI as substrate preincubated for 15 min followed by substrate addition measured after 40 min by Ellman's method.
Test [1] in a line: Selectivity ratio, ratio of inhibition of BChE (unknown origin) to inhibition of AChE (unknown origin).
In test [2] the target is T1, Amyloid-beta precursor protein (Homo sapiens, UniProt P05067). In words: Inhibition of amyloid beta 42 (unknown origin) aggregation at 50 uM incubated for 24 hrs by ThT assay relative to control.
The target of test [3] is T1, Amyloid-beta precursor protein. In words: Inhibition of amyloid beta 42 (unknown origin) aggregation incubated for 24 hrs by ThT assay.
A short description of test [4]: Antioxidant activity assessed as ABTS radical scavenging activity incubated for 10 min by spectrophotometric analysis. The test is classed as functional.
Test [5] addresses T1, Amyloid-beta precursor protein. In words: Inhibition of amyloid beta 42 (unknown origin) aggregation assessed as reduction in amyloid beta fibril formation incubated for 72 hrs by Congo Red dye based UV- spectrophotometric analysis.

Calls of active or inactive are those of the source. The rule behind the calls is not given here. Where only a bound is given, the exact number is not on record here.

Sequence of Cholinesterase (P06276 whole entry): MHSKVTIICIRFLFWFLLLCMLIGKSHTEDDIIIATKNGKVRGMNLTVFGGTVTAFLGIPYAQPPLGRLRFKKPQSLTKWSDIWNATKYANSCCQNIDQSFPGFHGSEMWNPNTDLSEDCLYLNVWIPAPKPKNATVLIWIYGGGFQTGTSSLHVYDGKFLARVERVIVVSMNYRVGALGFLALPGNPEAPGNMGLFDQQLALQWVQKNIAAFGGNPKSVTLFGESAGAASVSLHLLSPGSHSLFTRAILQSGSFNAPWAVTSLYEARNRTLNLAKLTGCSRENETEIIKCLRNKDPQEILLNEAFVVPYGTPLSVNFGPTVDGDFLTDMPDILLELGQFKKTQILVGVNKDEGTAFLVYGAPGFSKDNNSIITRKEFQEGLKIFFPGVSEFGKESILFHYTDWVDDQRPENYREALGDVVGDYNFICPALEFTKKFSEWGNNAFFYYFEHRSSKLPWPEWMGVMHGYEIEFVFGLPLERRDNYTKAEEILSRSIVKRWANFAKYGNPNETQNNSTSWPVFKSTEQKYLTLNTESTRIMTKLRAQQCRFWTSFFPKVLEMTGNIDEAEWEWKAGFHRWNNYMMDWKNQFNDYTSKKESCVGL
Sequence of Acetylcholinesterase (P22303 whole entry): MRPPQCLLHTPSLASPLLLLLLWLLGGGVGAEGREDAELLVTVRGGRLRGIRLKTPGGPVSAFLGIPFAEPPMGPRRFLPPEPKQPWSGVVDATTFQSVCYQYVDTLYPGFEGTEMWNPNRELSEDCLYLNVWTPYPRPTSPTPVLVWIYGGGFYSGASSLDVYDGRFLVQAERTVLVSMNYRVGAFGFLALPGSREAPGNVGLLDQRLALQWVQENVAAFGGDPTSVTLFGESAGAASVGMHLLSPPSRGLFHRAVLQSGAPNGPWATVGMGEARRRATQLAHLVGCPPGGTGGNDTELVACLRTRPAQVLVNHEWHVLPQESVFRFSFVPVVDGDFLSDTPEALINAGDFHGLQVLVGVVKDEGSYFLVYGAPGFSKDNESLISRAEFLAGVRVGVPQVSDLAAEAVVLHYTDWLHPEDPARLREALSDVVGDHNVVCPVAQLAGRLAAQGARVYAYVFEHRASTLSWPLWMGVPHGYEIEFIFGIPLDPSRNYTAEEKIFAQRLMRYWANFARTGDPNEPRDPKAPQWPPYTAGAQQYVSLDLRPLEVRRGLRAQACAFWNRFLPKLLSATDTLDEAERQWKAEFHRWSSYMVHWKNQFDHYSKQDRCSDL
T1 sequence (P05067 whole entry): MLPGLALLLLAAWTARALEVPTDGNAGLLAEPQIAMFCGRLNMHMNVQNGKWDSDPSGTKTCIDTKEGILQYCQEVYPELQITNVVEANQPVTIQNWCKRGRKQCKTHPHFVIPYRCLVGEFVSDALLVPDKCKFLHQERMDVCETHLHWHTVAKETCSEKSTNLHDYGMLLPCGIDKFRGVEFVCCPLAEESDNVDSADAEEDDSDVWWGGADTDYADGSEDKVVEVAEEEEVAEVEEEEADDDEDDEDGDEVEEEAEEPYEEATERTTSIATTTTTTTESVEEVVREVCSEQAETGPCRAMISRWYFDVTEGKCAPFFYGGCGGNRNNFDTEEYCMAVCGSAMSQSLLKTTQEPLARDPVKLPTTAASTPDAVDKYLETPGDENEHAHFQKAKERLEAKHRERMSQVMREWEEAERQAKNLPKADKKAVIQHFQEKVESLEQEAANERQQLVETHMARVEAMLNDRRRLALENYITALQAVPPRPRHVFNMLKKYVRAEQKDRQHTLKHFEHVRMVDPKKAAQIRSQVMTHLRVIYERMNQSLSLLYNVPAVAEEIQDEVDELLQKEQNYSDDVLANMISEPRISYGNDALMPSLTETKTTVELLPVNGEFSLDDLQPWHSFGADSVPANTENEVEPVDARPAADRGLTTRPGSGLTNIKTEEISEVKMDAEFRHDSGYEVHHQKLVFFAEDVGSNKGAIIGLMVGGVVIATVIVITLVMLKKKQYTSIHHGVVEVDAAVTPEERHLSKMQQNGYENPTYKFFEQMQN

As usually defined, the IC50 is the concentration that inhibits the measured activity by half. Broadly, the inhibition is the change of the read-out against control, counted positive when it falls. Regarding `COc1cc2c(cc1O)CC[n+]1cc3c(OC)c(O)ccc3cc1-2`, the IC50 at Acetylcholinesterase came out at 17.8 µM; at Cholinesterase, 119 µM; in test [3] it was 50 µM; in test [4] it was 26.5 µM. The Ratio IC50 in test [1] was 6.7. In test [2], this compound registered an inhibition of 30%.

For `COc1cc2c(c(O)c1OC)CC[n+]1cc3c(OC)c(O)ccc3cc1-2`, the half-maximal inhibitory concentration (IC50) is 16.4 µM against Acetylcholinesterase, greater than 300 µM against Cholinesterase and greater than 50 µM in test [4]. Besides, in test [1], the Ratio IC50 is greater than 18.3. Besides, in test [2], the inhibition entry is “inactive”.

Consider `COc1ccc2c(c1)C[C@@H]1c3c(cc4c(c3-2)OCO4)CCN1C`, for which the IC50 is 26.2 µM on Acetylcholinesterase, 36.4 µM against Cholinesterase, greater than 50 µM in test [3] and greater than 50 µM in test [4]. In addition, the Ratio IC50 in test [1] came to 1.4. Further, in test [2], the inhibition came out at 38.2%.

As for `COc1cc2c(c(O)c1OC)CC[N@+]1(C)Cc3c(ccc(O)c3OC)C[C@@H]21`, the half-inhibitory concentration (IC50) was 131 µM against Acetylcholinesterase, greater than 300 µM on Cholinesterase and 43.6 µM in test [4]. In addition, in test [1], the Ratio IC50 is greater than 2.3. Moreover, the inhibition entry in test [2] was “inactive”.

Turning to `COc1cc(O)c2c(c1)C[C@@H]1c3c(cc4c(c3-2)OCO4)CC[N@@+]1(C)[O-]`, the IC50 on Acetylcholinesterase was greater than 300 µM; on Cholinesterase, greater than 300 µM; in test [3] it was greater than 50 µM; in test [4] it was greater than 50 µM. This compound showed an inhibition in test [2] of 32.8%.

`COc1cc(O)cc2c1-c1c3c(cc4c1[C@@H](C2)N(C)CC4)OCO3`: the 50% inhibitory concentration (IC50) against Acetylcholinesterase is greater than 300 µM; against Cholinesterase, greater than 300 µM; in test [3], 35.7 µM; in test [4] it was 16.5 µM. The compound further returned an inhibition in test [2] of 76%. In test [5], the inhibition result is “Active”.

As for `COc1ccc(C[C@H]2c3c(ccc(OC)c3O)CCN2C)cc1`, the half-inhibitory concentration (IC50) at Acetylcholinesterase is 25.6 µM; against Cholinesterase it was 33 µM; in test [3] it was greater than 50 µM; in test [4] it was 38.3 µM. Further, the Ratio IC50 in test [1] is 1.3. Moreover, in test [2], the inhibition came to 26.6%.

`COc1cc(O)c2c(c1)C[C@@H]1c3c(cc4c(c3-2)OCO4)CCN1C`: the half-maximal inhibitory concentration (IC50) on Acetylcholinesterase was 85 µM; against Cholinesterase, 94.5 µM; in test [3], greater than 50 µM; in test [4] it was 14.8 µM. For the same compound, the Ratio IC50 in test [1] turned out to be 1.1. Further, the inhibition in test [2] is 15.1%.

Turning to `COc1ccc2c(c1OC)c1c3c4c(cc5c(c42)OCO5)CCN3C(=O)C1=O`, the 50% inhibitory concentration (IC50) at Acetylcholinesterase is 33 µM; at Cholinesterase, 251 µM; in test [3], greater than 50 µM; in test [4], greater than 50 µM. Further, the Ratio IC50 in test [1] was 7.6. In test [2], this compound showed an inhibition of 10.9%.

Regarding `COc1cc(O)c2c(c1)C[C@@H]1c3c(cc4c(c3-2)OCO4)CC[N@+]1(C)[O-]`, the IC50 against Acetylcholinesterase was greater than 300 µM; at Cholinesterase, greater than 300 µM; in test [3] it was greater than 50 µM; in test [4], 9.9 µM. The same compound registered an inhibition in test [2] of 37.9%.

In the case of `COc1ccc2c(c1)C[C@H]1NCCc3cc4c(c-2c31)OCO4`, the half-inhibitory concentration (IC50) against Acetylcholinesterase is 126 µM; against Cholinesterase, 68.5 µM; in test [3], greater than 50 µM; in test [4], greater than 50 µM. The Ratio IC50 in test [1] was 0.5. Further, the inhibition in test [2] stood at 28%.

On to `COc1cc2c(cc1OC)[C@@H]1Cc3ccc(O)c(OC)c3CN1CC2`, for which the IC50 is 211 µM on Acetylcholinesterase, 124 µM at Cholinesterase, greater than 50 µM in test [3] and greater than 50 µM in test [4]. Moreover, the Ratio IC50 in test [1] came to 0.6. In addition, the inhibition in test [2] was 10.7%.

As for `COC1=C(CC(=O)CCc2ccccc2)C(=O)O[C@@H]1O`, the concentration for half-maximal inhibition (IC50) is greater than 300 µM on Acetylcholinesterase, greater than 300 µM against Cholinesterase, 26.6 µM in test [3] and greater than 50 µM in test [4]. The inhibition in test [2] turned out to be 74.4%. Further, in test [5], the inhibition entry is “Active”.

For `COc1ccc2c(c1)C(=O)c1nccc3cc4c(c-2c13)OCO4` [ATHEROSPERMIDINE], the IC50 against Acetylcholinesterase was 10.9 µM; against Cholinesterase, greater than 300 µM; in test [3], 31.9 µM; in test [4], greater than 50 µM. Moreover, the Ratio IC50 in test [1] was greater than 27.5. Moreover, in test [2], the inhibition stood at 86.2%. Besides, in test [5], the inhibition result was “Active”.

Consider `COc1cc2c(cc1O)[C@@H]1Cc3ccc(OC)c(O)c3CN1CC2` [SCOULERINE], for which the IC50 on Acetylcholinesterase is 143 µM; against Cholinesterase, 61.3 µM; in test [3] it was greater than 50 µM; in test [4] it was 43.8 µM. Also, the Ratio IC50 in test [1] was determined as 0.4. This compound also returned an inhibition in test [2] of 3.3%.

Take `COc1cc(O)c2c(c1)C[C@H]1NCCc3c(OC)c4c(c-2c31)OCO4`: the concentration for half-maximal inhibition (IC50) at Acetylcholinesterase was 162 µM; on Cholinesterase, 141 µM; in test [3], greater than 50 µM; in test [4] it was 13.5 µM. Also, in test [1], the Ratio IC50 came out at 0.9. For the same compound, the inhibition in test [2] is 44.5%.

On to `Cc1c(C)c2c(c(C)c1O)CCC(C)(C(=O)O)O2` (stereo unspecified) [TROLOX], for which the concentration for half-maximal inhibition (IC50) in test [4] stood at 11 µM.

For the compound `O=C1C(=O)N2CCc3cc4c(c5c3c2c1c1ccccc15)OCO4`, the half-maximal inhibitory concentration (IC50) is 51.3 µM at Acetylcholinesterase, 13.7 µM against Cholinesterase, greater than 50 µM in test [3] and greater than 50 µM in test [4]. The Ratio IC50 in test [1] is 0.3. The compound further showed an inhibition in test [2] of 47.6%.

As to `COc1cc(O)c2c(c1)C[C@H]1NCCc3cc4c(c-2c31)OCO4`, the 50% inhibitory concentration (IC50) was greater than 300 µM at Acetylcholinesterase, greater than 300 µM against Cholinesterase, greater than 50 µM in test [3] and greater than 50 µM in test [4]. The compound also came in with an inhibition in test [2] of 10.2%.

As for `COc1cc2c(c(O)c1OC)CCN1Cc3c(ccc(O)c3OC)C[C@@H]21`, the half-inhibitory concentration (IC50) on Acetylcholinesterase is 89 µM; against Cholinesterase it was greater than 300 µM; in test [4] it was greater than 50 µM. The Ratio IC50 in test [1] is greater than 3.4. Further, in test [2], the inhibition entry was “inactive”.

Consider `COC1=CC(=O)c2c(cc3c4c(cc5c(c24)OCO5)CCN3C)C1=O`, for which the half-inhibitory concentration (IC50) on Acetylcholinesterase was 221 µM; against Cholinesterase, 83.5 µM; in test [3], greater than 50 µM; in test [4], greater than 50 µM. The Ratio IC50 in test [1] stood at 0.4. The compound further displayed an inhibition in test [2] of 30.7%.
